Measured values as given in a melting point compilation (Tetko et al.; mined from patent text by program, amines drawn as free bases though some values may be those of a salt).

Compound	melting point [°C]
O=C1N(C2CCCCC2)CC(CO)C1(c1ccccc1)c1ccccc1 (centres undefined)	148 to 150
CCCCc1nn(-c2cc(NC(=O)c3ccccc3)ccc2Br)c(=O)n1Cc1ccc(-c2ccccc2S(=O)(=O)NC(=O)OC(C)(C)C)cc1F	130 to 133
C[C@@H](c1ccccc1)N1C[C@@H](C(N)=O)CC1=O	149 to 150
COC(=O)C1=C(COCC(C)n2c(C)nc(C)c2C)Nc2c(c(=O)n(C)c(=O)n2C)C1c1ccccc1Cl (centres undefined)	180 to 182
CC(=NC#N)NC1=CC(C)(C)Oc2ccc(C#N)cc21	205 to 206
CCCC1(OCCO)CCNCC1	72
CN1CCC(c2c[nH]c3ccc(N)cc23)C(F)C1 (centres undefined)	105 to 107
CSc1ncc2cc(CBr)c(=O)n(C3CCCC3)c2n1	103 to 105
O=C1NC(=O)c2ccc(Br)cc2/C1=C/N1CCN(CCN2CCOCC2)CC1	156
CC(=O)Nc1ccc2c(c1)OCCCO2	108 to 109
C[C@H]1N=C(c2ccccc2F)c2cc([N+](=O)[O-])ccc2NC1=O	120
CC1CCC(C(C)C)C(OC(=O)C2(CC(=O)OC(C)(C)C)C(=O)N(Cc3ccc(Br)cc3F)C(=O)c3cccn32)C1 (centres undefined)	99 to 100
O=C(NCc1ccc(Cl)nc1)C(Cl)=NNc1ccc(C(F)(F)F)cc1	172 to 173
O=C1C(=O)N(CCCCN2CCN(C(c3ccccc3)c3ccccc3)CC2)c2ccc(Br)cc21	132 to 133
CON1C(C)(C)CC(OC(=O)c2ccccc2)CC1(C)C	67 to 68
CC(C)(C)OC(=O)NCCOc1noc2cccc(C#N)c12	116 to 117
CC12CCC3c4ccc(O)cc4CCC3(C)C1CCC2O (centres undefined)	168 to 170
Cc1oncc1C(=O)N1CCCC1	51 to 53

Continued, values first:

melting point [°C]	Compound
205 to 207	COc1ccc(S(=O)(=O)N2c3ccc(Br)cc3-c3ccccc3C2c2ccccc2)cc1Br (centres undefined)
166	Oc1nc(Cl)n(CCOc2ccccc2)n1
207 to 208	COc1ccn2nc(-c3ccccc3)c(-c3ccc(=O)n(C4CCOC4)n3)c2c1 (centres undefined)
230 to 233	COc1cc(-c2cn3cccnc3n2)ccc1O
216 to 217	COc1c(C(=O)O)n(C)c(=O)c2ccc(Cl)cc12
312 to 314	CC(C)C(=O)Nc1ccc2ncn3c(=O)c(C(=O)O)cnc3c2c1
172 to 174	Cc1cc(OC(=O)c2ccccc2)c2ccccc2c1O
94	CCCCOc1cc(/C=C(\OCC)C(=O)O)ccc1OCCc1ccc(OS(=O)(=O)CCCC)c(OC)c1
258 to 259	Cn1c(C#N)c(-c2ccc(F)cc2)c2ncccc2c1=O
265	CN(C)c1ccc2nc(N)c(C#N)c(N=Cc3ccccc3)c2c1
58 to 60	COC(=O)CCc1cn(Cc2ccc(C(=O)OC(C)(C)C)cc2OC)c2cc(C(=O)NCC3CCCC3)ccc12
184	O=C(c1cccnc1)c1ccc([N+](=O)[O-])c(CO)c1
129 to 130	COc1ccc(C2(C#Cc3cccc(-c4nnc(C)s4)c3)CCC(O)CC2)cc1OC1CCCC1 (centres undefined)
215 to 216	CC(=O)CCNc1cc(C(=O)O)cc(S(N)(=O)=O)c1Oc1ccccc1
152 to 153	CNc1nc(OC)ccc1[N+](=O)[O-]
> 350	O=c1[nH]c2cc(Cl)ccc2c(O)c1-c1ccccc1F
202 to 204	COC(=O)c1c(-c2ccccc2)[nH]c(-c2ccncc2)c1C
177 to 182	CC(C)(C)NCC(O)c1cc(Cl)c(NC(=O)c2ccccc2)c(Cl)c1 (centres undefined)
170	COc1ccc(NC(=O)Oc2ccc3c(c2)N(Cc2ccccc2)CCC3)cc1
184	COc1cc(-c2nc3ccc(OCCN(C(C)C)C(C)C)cc3n2Cc2ccccc2C(F)(F)F)cc(OC)c1OC
331 to 332	Cc1ccc(F)c(-n2cnc(-c3cnc4[nH]cc(C(=O)N[C@@H](C)C(C)(C)C)c4n3)c2)c1
